According to US11524080B2 (priority 2018, dated 2022):
Values after ≈ are worked out from the molar mass of the structure shown. Read-outs that look alike come from different tables or passages of the source.

Assays:
[1] = mouse, in vivo
[2] = mouse, in vivo, po
[3] = tested on: B. pseudomallei K96243; test: microbe, parasite or virus in culture; format: cell-based; settings: Burkholderia pseudomallei
[4] = tested on: F. tularensis SCHU-S4; test: microbe, parasite or virus in culture; format: cell-based; settings: Francisella tularensis, SCHUS4
[5] = tested on: F. tularensis SCHU-S4; test: microbe, parasite or virus in culture; format: cell-based; settings: Francisella tularensis, SCHUS4; remark: listed apart in the source
[6] = mouse, in vivo, 50 mg/kg
[7] = in vivo; settings: female, Balb/c, mouse

O=C(O)c1cn(C2CC2)c2cc(N3CCNCC3)c(F)cc2c1=O [Free ciprofloxacin, ciprofloxacin]
Effect on body weight [1]: significantly induced weight loss
Mean weight gain on Day 36 [2]: 2.4%
Mean weight loss of starting weight by Day 8 [2]: 4.4%
MBC [3]: 16 µg/mL (≈ 48.3 µM)

C[C@H]1c2cccc(O)c2C(=O)C2=C(O)[C@]3(O)C(=O)C(C(N)=O)=C(O)[C@@H](N(C)C)[C@@H]3[C@@H](O)[C@@H]21 [Free doxycycline, doxycycline hyclate]
Effect on body weight [1]: strong indication for doxycycline-based weight loss
Necropsy findings ([1]; ip): peritoneal adhesions involving spleen, pancreas, intestines and kidney
Necropsy findings ([1]; po): two mice had slightly rounded edges to the lobes of the liver
MBC [4]: > 64 µg/mL
MIC [5]: 0.5 µg/mL (≈ 1.13 µM)
Mean weight gain on Day 36 [2]: 1.7%
Mean weight loss of starting weight by Day 8 [2]: 5.2%

C[C@H]1COc2c(N3CCN(C)CC3)c(F)cc3c(=O)c(C(=O)O)cn1c23 [Free levofloxacin, levofloxacin]
AUC ([6]; ip): 122.1861 µg/mL/h
Tmax ([6]; ip): 18 min
AUC ([6]; po): 119.6124 µg/mL/h
Tmax ([6]; po): 36 min
Effect on body weight [1]: minimal
Mean weight gain on Day 36 [2]: 3.2%
Mean weight loss of starting weight by Day 8 [2]: 3.3%
Cmax ([7]; ip, 50 mg/kg): 50200 ng/mL
Cmax ([7]; ip, 100 mg/kg): 2100 ng/mL
Cmax ([7]; po, 50 mg/kg): 46100 ng/mL
